# Assay results: patent publication US20160106727A1, “COMPOSITION AND METHOD FOR THE TREATMENT OF NEURODEGENERATION” (Wright State University, priority 2011, published 2016)
# Test system: neurogenesis in the subventricular zone of the lateral brain ventricles
# Test: Adult neurogenesis by doublecortin staining after two weeks of daily oral treatment
# Type: in vivo, male Wistar rats
# Settings: for Fold increase in neurogenesis over vehicle control: anterior subventricular zone
# [1] = doublecortin staining, two weeks daily oral
# Source text: Animals, more specifically, male Wistar rats were used to measure differences in neurogenesis in the subventricular zone of the lateral brain ventricles in response to the various drug treatments using doublecortin primary antibody to measure neurogenesis.
# The male Wistar rats aged approximately one year old were used, wherein a doublecortin antibody was used to measure neurogenesis with a horseradish peroxidase labeled secondary antibody developed with 3,3′-Diaminobenzidine (DAB).
# Wherein, the male Wistar rats were given voluntary oral drug treatments daily for a two week period.
# For example, four groups of Wistar rats, n=6 in each, were given a vehicle control or one of three drug compositions which are voluntary orally administered for a period of two weeks, euthanized and the brain dissected for immunohistochemistry.
# Specifically, all dissected animal brains were blocked and post fixed for 24 hours in 4% paraformaldehyde in PBS at 5° C. The brains were then put into 30% sucrose in PBS at 5° C. for at least 3 days and then cut on a cryostat into 50 micron coronal sections. The sections were collected into PBS, blocked for one hour with PBS containing 1% Tween and 3% secondary antibody host serum, then reacted with doublecortin primary antibody, 1:500 dilution in blocking solution. […] Free-floating sections were washed with 3 washes of PBS containing 0.1% Tween, then incubated in the dark with secondary antibodies, Cy3-labeled Donkey anti-rabbit IgG, FITC-labeled Donkey anti-sheep IgG; Jackson Immunology, at a 1:100 dilution in blocking solution for 2.5 hours at room temperature or a Vector ABC elite horseradish peroxidase DAB kit was used according to kit instructions, mounting the final washed sections on gel-subbed slides. Sections with fluorescent secondary antibodies were washed three times with PBS containing 0.1% Tween and then the sections were mounted on gel-subbed slides.
# ANOVA (analysis of variance) was used for statistical analysis.
smiles,measurement,setting,value
CNCCC(Oc1ccc(C(F)(F)F)cc1)c1ccccc1 (stereo not shown) [fluoxetine],Fold increase in neurogenesis over vehicle control,[1],approximately 10 fold
same,Fold increase in neurogenesis over vehicle control,"doublecortin staining, two weeks daily oral, listed as Fluoxetine",10 fold
same,Neurogenesis compared to vehicle control (in words),[1],significant increase in neurogenesis
same,Area of doublecortin staining (mean),"subventricular zone of anterior lateral ventricles, daily voluntary oral treatment for two weeks, FIG. 1E",0.5727 mm^2
